# Experimental data taken from patent publication EP2210584A1, “Stable polymeric composition comprising an epothilone and an amphiphilic block copolymer” (priority 2009, dated 2010).
# Assay: Detection of degradation products of sagopilone by HPLC chromatogram
# Type: physicochemical
# Details: storage of 24 hours at 4°C
# Description: The method for measuring the sagopilone content of the micellar dispersions as well as the detection of degradation products is determined by High Performance Liquid Chromatography. The analysis was done on a Agilent 1100 Series chromatography system consisting of a quaternary pump, an autoinjector, a column heater and a UV-detector from Agilent Technologies, Santa Clara, USA .
structure (smiles),measurement,value
"C=CC[C@H]1C(=O)C(C)(C)[C@@H](O)CC(=O)O[C@H](c2ccc3sc(C)nc3c2)C[C@@H]2O[C@]2(C)CCC[C@H](C)[C@@H]1O [Sagopilone, (1S,3S,7S,10R,11S,12S,16R)-7,11-dihydroxy-10-(prop-2-en-1-yl)-3-(2-methylbenzothiazol-5-yl)-8,8,12,16-tetramethyl-4,17-dioxabicyclo[14.1.0]heptadecane-5,9-dione]",degradation of Sagopilone solubilized within the polymeric micelles,did not degrade
